According to patent US20240218022A1, “ANTI-VISTA MACROCYCLIC PEPTIDES AND COMPOSITIONS” (BRISTOL-MYERS SQUIBB COMPANY, priority 2022, published 2024):
Read-outs that look alike come from different tables or passages of the source. Starred links: 1 amine or outer side, 2 acyl side, 3 side chain; linkers in the order of their positions; H or OH if unused. Positions of bridges follow the written chain, without caps; N, C: chain ends. Non-standard residues stand in square brackets, D forms with d. Residues, ends and D or L forms follow the SMILES beside them. Phe(4-COOH) = N[C@@H](Cc1ccc(C(=O)O)cc1)C(=O)O; NMeW = CN[C@@H](Cc1c[nH]c2ccccc12)C(=O)O; Phe(3-Me) = Cc1cccc(C[C@H](N)C(=O)O)c1; 2Nal = N[C@@H](Cc1ccc2ccccc2c1)C(=O)O; βAsp = O=C(O)[C@H](CC(=O)[*:2])N[*:1]; Cit = NC(=O)NCCC[C@H](N)C(=O)O; Ahp(2) = CCCCC[C@H](N)C(=O)O; NMeNle = CCCC[C@H](NC)C(=O)O; Tle = CC(C)(C)[C@H](N)C(=O)O; NHexGly = CCCCCCNCC(=O)O; Nle = CCCC[C@H](N)C(=O)O; Orn = NCCC[C@H](N)C(=O)O; Aun = NCCCCCCCCCCC(=O)O; Aze = O=C(O)[C@@H]1CCN1; AEEA = NCCOCCOCC(=O)O

Target: T1, mouse VISTA (mVISTA) (Mus musculus, UniProt Q9D659)
T1 construct: expressed in transfected cells; host or cells: Human embryonic kidney 293T cells
T1 sequence (Q9D659 33-308): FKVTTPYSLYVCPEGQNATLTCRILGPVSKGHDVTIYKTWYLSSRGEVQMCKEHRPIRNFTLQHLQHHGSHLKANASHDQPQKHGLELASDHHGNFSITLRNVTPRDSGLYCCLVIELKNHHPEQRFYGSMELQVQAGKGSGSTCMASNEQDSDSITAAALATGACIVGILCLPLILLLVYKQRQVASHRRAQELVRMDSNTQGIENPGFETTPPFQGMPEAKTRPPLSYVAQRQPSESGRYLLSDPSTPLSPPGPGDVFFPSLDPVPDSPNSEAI
Assay: Cell-Based Binding High-Content Assay For mVISTA (HC CBA mVISTA)
Method in brief: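 Competition of compound with a biotinylated peptide (final 2 nM, 30 min at RT) for binding to mVISTA on 293T cells, run under no-wash or wash (1 h compound preincubation then removal) formats. Readout by Alexa 647–streptavidin imaging on a high-content platform; four-parameter logistic fit gave IC50.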

[1] = cell-based binding high-content assay, mVISTA, the 15th table, read-out: HC CBA mVISTA IC50

IC50 (read-out: HC CBA mVISTA IC50) [nM]	SMILES	also measured
	CCCCCCN1CC(=O)N[C@@H](Cc2ccc(O)cc2)C(=O)N[C@@H](CCCC)C(=O)N[C@@H](CC(=O)O)C(=O)N[C@@H](CCCNC(=N)N)C(=O)N[C@@H](CC(C)C)C(=O)N[C@@H](CCCCC)C(=O)N2CCC[C@H]2C(=O)N[C@@H](C(C)C)C(=O)N[C@@H](CC(N)=O)C(=O)N[C@H](C(=O)NCCOCCOCC(=O)N[C@@H](CC(=O)O)C(=O)NCCOCCOCC(=O)NCCCCCCCCCCC(=O)O)CSCC(=O)N[C@@H](Cc2ccccc2)C(=O)N[C@@H](Cc2ccc(O)cc2)C(=O)N[C@@H](CC(=O)O)C1=O (stereo in doubt) [compound 2295]	IC50 (cell-based binding high-content assay, read-out: HC CBA miPrISTA IC50): 33.1 nM
	CCCCCCN1CC(=O)N[C@@H](Cc2ccc(O)cc2)C(=O)N[C@@H](CCCC)C(=O)N[C@@H](CC(N)=O)C(=O)N[C@@H](CCCNC(=N)N)C(=O)N(C)[C@@H](CCCC)C(=O)N[C@@H](CCCCC)C(=O)N2CCC[C@H]2C(=O)N[C@@H](C(C)C)C(=O)N[C@@H](CCCNC(=N)N)C(=O)N[C@H](C(=O)NCC(=O)O)CSCC(=O)N[C@@H](Cc2ccc3ccccc3c2)C(=O)N[C@@H](Cc2c[nH]c3ccccc23)C(=O)N[C@@H](CC(=O)O)C1=O [compound 1246] ({CH2CO}-[2Nal]WD[NHexGly]Y[Nle]NR[NMeNle][Ahp(2)]PVRCG-OH; thioether N-14)	IC50 [1]: 25.1 nM
5.3	CCCCCCN1CC(=O)N[C@@H](Cc2ccc(O)cc2)C(=O)N[C@@H](CCCC)C(=O)N[C@@H](CC(N)=O)C(=O)N[C@@H](CCCNC(=N)N)C(=O)N(C)[C@@H](Cc2c[nH]c3ccccc23)C(=O)N[C@@H](CCCCC)C(=O)N2CCC[C@H]2C(=O)N[C@@H](C(C)C)C(=O)N[C@@H](CC(=O)O)C(=O)N[C@H](C(=O)NCC(=O)O)CSCC(=O)N[C@@H](Cc2ccccc2)C(=O)N[C@@H](Cc2c[nH]c3ccccc23)C(=O)N[C@@H](CC(=O)O)C1=O [Example 1410] ({CH2CO}-FWD[NHexGly]Y[Nle]NR[NMeW][Ahp(2)]PVDCG-OH; thioether N-14)	
	CCCCCCN1CC(=O)N[C@@H](Cc2ccc(O)cc2)C(=O)N[C@@H](CCCC)C(=O)N[C@@H](CC(N)=O)C(=O)N[C@@H](CCCNC(=N)N)C(=O)N[C@@H](CC(C)C)C(=O)N[C@@H](CCCCC)C(=O)N2CCC[C@H]2C(=O)N[C@@H](C(C)C)C(=O)N[C@@H](CC(=O)O)C(=O)N[C@H](C(=O)N[C@@H](Cc2ccc(O)cc2)C(N)=O)CSCC(=O)N[C@@H](Cc2ccc3ccccc3c2)C(=O)N[C@@H](Cc2ccc(O)cc2)C(=O)N[C@@H](CC(=O)O)C1=O [Ex 1323] ({CH2CO}-[2Nal]YD[NHexGly]Y[Nle]NRL[Ahp(2)]PVDCY-NH2; thioether N-14)	IC50 (cell-based binding high-content assay, mVISTA, the 16th table, read-out: HC CBA mVISTA IC50): 13.5 nM
36.2	CCCCCCN1CC(=O)N[C@@H](Cc2ccc(O)cc2)C(=O)N[C@@H](CCCC)C(=O)N[C@@H](CC(N)=O)C(=O)N[C@@H](CCCNC(=N)N)C(=O)N(C)[C@@H](CCCC)C(=O)N[C@@H](CCCCC)C(=O)N2CCC[C@H]2C(=O)N[C@@H](C(C)C)C(=O)N[C@@H](CC(=O)O)C(=O)N[C@H](C(=O)N[C@@H](CCCN)C(=O)N[C@@H](CC(N)=O)C(=O)O)CSCC(=O)N[C@@H](Cc2ccc3ccccc3c2)C(=O)N[C@@H](Cc2c[nH]c3ccccc23)C(=O)N[C@@H](CC(=O)O)C1=O [compound 1139] ({CH2CO}-[2Nal]WD[NHexGly]Y[Nle]NR[NMeNle][Ahp(2)]PVDC[Orn]N-OH; thioether N-14)	
47.3	CCCCCCN1CC(=O)N[C@@H](Cc2ccc(O)cc2)C(=O)N[C@@H](CCCC)C(=O)N[C@@H](CC(N)=O)C(=O)N[C@@H](CCCNC(=N)N)C(=O)N(C)[C@@H](CCCC)C(=O)N[C@@H](CCCCC)C(=O)N2CC[C@H]2C(=O)N[C@@H](Cc2ccccc2)C(=O)N[C@@H](CO)C(=O)N[C@H](C(=O)N[C@@H](CC(=O)NCCOCCOCC(=O)NCCCCCCCCCCC(=O)O)C(=O)O)CSCC(=O)N[C@@H](Cc2ccccc2)C(=O)N[C@@H](Cc2c[nH]c3ccccc23)C(=O)N[C@@H](CC(=O)O)C1=O [Example 2188] ({CH2CO}-FWD[NHexGly]Y[Nle]NR[NMeNle][Ahp(2)][Aze]FSC[βAsp][AEEA][Aun]-OH; thioether N-14)	
	CCCCCCN1CC(=O)N[C@@H](Cc2ccc(O)cc2)C(=O)N[C@@H](CCCC)C(=O)N[C@@H](CC(=O)O)C(=O)N[C@@H](CCCNC(=N)N)C(=O)N(C)[C@@H](CCCC)C(=O)N[C@@H](CCCCC)C(=O)N2CCC[C@H]2C(=O)N[C@@H](C(C)C)C(=O)N[C@@H](CC(=O)O)C(=O)N[C@H](C(=O)N[C@@H](CC(=O)O)C(N)=O)CSCC(=O)N[C@@H](Cc2cccc(C)c2)C(=O)N[C@@H](Cc2ccc(O)cc2)C(=O)N[C@@H](CC(=O)O)C1=O [compound 1448] ({CH2CO}-[Phe(3-Me)]YD[NHexGly]Y[Nle]DR[NMeNle][Ahp(2)]PVDCD-NH2; thioether N-14)	IC50 (the 19th table, scaffold drawing 22, read-out: HC CBA mVISTA IC50): 14.2 nM
	CCCCCCN1CC(=O)N[C@@H](Cc2ccc(O)cc2)C(=O)N[C@@H](CC(C)C)C(=O)N[C@@H](CC(N)=O)C(=O)N[C@@H](CCCNC(=N)N)C(=O)N[C@@H](CC(C)C)C(=O)N[C@@H](CCCCC)C(=O)N2CCC[C@H]2C(=O)N[C@@H](C(C)C)C(=O)N[C@@H](CO)C(=O)N[C@H](C(=O)N[C@@H](CC(=O)NCCOCCOCC(=O)N[C@@H](CC(=O)O)C(=O)NCCOCCOCC(=O)NCCCCCCCCCCC(=O)O)C(=O)O)CSCC(=O)N[C@@H](Cc2ccccc2)C(=O)N[C@@H](Cc2ccc(O)cc2)C(=O)N[C@@H](CC(=O)O)C1=O [compound 2003] ({CH2CO}-FYD[NHexGly]YLNRL[Ahp(2)]PVSC[βAsp][AEEA]D[AEEA][Aun]-OH; thioether N-14)	IC50 (cell-based binding high-content assay, mVISTA, read-out: HC CBA miPr ISTA IC50): 37.8 nM
19.8	CCCCCCN1CC(=O)N[C@@H](Cc2ccc(O)cc2)C(=O)N[C@@H](CCCC)C(=O)N[C@@H](CC(N)=O)C(=O)N[C@@H](CCCNC(=N)N)C(=O)N[C@@H](Cc2ccc(C(=O)O)cc2)C(=O)N[C@@H](CCCCC)C(=O)N2CCC[C@H]2C(=O)N[C@@H](C(C)C)C(=O)N[C@@H](CO)C(=O)N[C@H](C(=O)N[C@@H](CC(=O)NCCOCCOCC(=O)NCCCCCCCCCCC(=O)O)C(=O)O)CSCC(=O)N[C@@H](Cc2ccccc2)C(=O)N[C@@H](Cc2c[nH]c3ccccc23)C(=O)N[C@@H](CC(=O)O)C1=O [Example 2176] ({CH2CO}-FWD[NHexGly]Y[Nle]NR[Phe(4-COOH)][Ahp(2)]PVSC[βAsp][AEEA][Aun]-OH; thioether N-14)	
19.5	CCCCCCN1CC(=O)N[C@@H](Cc2ccc(O)cc2)C(=O)N[C@@H](CC(C)C)C(=O)NCC(=O)N[C@@H](CCCNC(=N)N)C(=O)N[C@@H](CC(C)C)C(=O)N[C@@H](CCCCC)C(=O)N2CCC[C@H]2C(=O)N[C@@H](C(C)C)C(=O)N[C@@H](CO)C(=O)N[C@H](C(=O)NCC(N)=O)CSCC(=O)N[C@@H](Cc2ccccc2)C(=O)N[C@@H](Cc2c[nH]c3ccccc23)C(=O)N[C@@H](CC(=O)O)C1=O [Example 1358] ({CH2CO}-FWD[NHexGly]YLGRL[Ahp(2)]PVSCG-NH2; thioether N-14)	
	CCCCCCN1CC(=O)N[C@@H](Cc2ccc(O)cc2)C(=O)N[C@@H](CCCC)C(=O)N[C@@H](CC(=O)O)C(=O)N[C@@H](CCCNC(N)=O)C(=O)N(C)[C@@H](CCCC)C(=O)N[C@@H](CCCCC)C(=O)N2CCC[C@H]2C(=O)N[C@@H](C(C)C)C(=O)N[C@@H](CC(=O)O)C(=O)N[C@H](C(=O)N[C@@H](CC(=O)O)C(N)=O)CSCC(=O)N[C@@H](Cc2ccc3ccccc3c2)C(=O)N[C@@H](Cc2c[nH]c3ccccc23)C(=O)N[C@@H](CC(=O)O)C1=O [compound 1242] ({CH2CO}-[2Nal]WD[NHexGly]Y[Nle]D[Cit][NMeNle][Ahp(2)]PVDCD-NH2; thioether N-14)	IC50 [1]: 8.9 nM
	CCCCCCN1CC(=O)N[C@@H](Cc2ccc(O)cc2)C(=O)N[C@@H](C)C(=O)N[C@@H](CC(N)=O)C(=O)N[C@@H](CCCN)C(=O)N(C)[C@@H](CCCC)C(=O)N[C@@H](CCCCC)C(=O)N2CCC[C@H]2C(=O)N[C@@H](C(C)(C)C)C(=O)N[C@@H](CC(=O)O)C(=O)N[C@H](C(=O)N[C@@H](CC(=O)NCCOCCOCC(=O)N[C@@H](CC(=O)O)C(=O)NCCOCCOCC(=O)NCCCCCCCCCCC(=O)O)C(=O)O)CSCC(=O)N[C@@H](Cc2ccccc2)C(=O)N[C@@H](Cc2ccc(O)cc2)C(=O)N[C@@H](CC(=O)O)C1=O [compound 2095] ({CH2CO}-FYD[NHexGly]YAN[Orn][NMeNle][Ahp(2)]P[Tle]DC[βAsp][AEEA]D[AEEA][Aun]-OH; thioether N-14)	IC50 (cell-based binding high-content assay, mVISTA, read-out: HC CBA miPrISTA IC50): 50.1 nM
10.9	CCCCCCN1CC(=O)N[C@@H](Cc2ccc(O)cc2)C(=O)N[C@@H](CCCCC)C(=O)N[C@@H](CC(N)=O)C(=O)N[C@@H](CCCNC(=N)N)C(=O)N(C)[C@@H](CCCC)C(=O)N[C@@H](CCCCC)C(=O)N2CCC[C@H]2C(=O)N[C@@H](C(C)C)C(=O)N[C@@H](CO)C(=O)N[C@H](C(=O)NCC(=O)O)CSCC(=O)N[C@@H](Cc2ccccc2)C(=O)N[C@@H](Cc2c[nH]c3ccccc23)C(=O)N[C@@H](CC(=O)O)C1=O [Example 1384] ({CH2CO}-FWD[NHexGly]Y[Ahp(2)]NR[NMeNle][Ahp(2)]PVSCG-OH; thioether N-14)	
36.3	CCCCCCN1CC(=O)N[C@@H](Cc2ccc(O)cc2)C(=O)N[C@@H](CCCC)C(=O)N[C@@H](CC(N)=O)C(=O)N[C@@H](CCCNC(=N)N)C(=O)N(C)[C@@H](CCCC)C(=O)N[C@@H](CCCCC)C(=O)N2CCC[C@H]2C(=O)N[C@@H](C(C)(C)C)C(=O)N[C@@H](CO)C(=O)N[C@H](C(=O)NCC(N)=O)CSCC(=O)N[C@@H](Cc2ccccc2)C(=O)N[C@@H](Cc2c[nH]c3ccccc23)C(=O)N[C@@H](CC(=O)O)C1=O [Example 1391] ({CH2CO}-FWD[NHexGly]Y[Nle]NR[NMeNle][Ahp(2)]P[Tle]SCG-NH2; thioether N-14)	
